What was measured:
[1] = tested on: human iPS cell line AK5 (hPSC1); assay: Differentiation into hematopoietic progenitor cells by the PSC-Sac method (CD34+CD43+ cell count); type: cell-based; conditions: PSCs maintained on LM511, CHIR99021 6 nM added from 4, 3, 2 or 1 day before start of differentiation induction; vs DMSO (FIG. 2)
Method: PSCs were cultured according to the previous report on various laminin E8 fragments under feeder-free conditions (Nakagawa et al., Scientific Reports, 4: 3954, 2014). Among the recombinant laminin E8 fragments used, LM511 E8 was iMatrix-511/iMatrix-511 silk (Nippi, Ibaraki, Japan), and other laminin E8 (LM421/121) fragments were provided by Dr. Kiyotoshi Sekiguchi (Institute for Protein Research, Osaka University). Each laminin fragment was added to 0.5 μg/cm^2 relative to the dish bottom area. In the laminin dilution experiment, coating was performed in the same manner as described above under the conditions of [x½], [x¼], [x⅛], [x 1/16], wherein [x1] is Laminin 511E8 0.5 μg/cm^2 condition. […]
As a method for performing blood cell differentiation from PSCs, the PSC-Sac method, which is a co-culture method with mouse interstitial cell C3H10TR, was used (Takayama and Eto Methods Mol Biol. 2012; 788:205-17, Takaayama et al. J Exp Med. 2010 207(13): 2817-2830). […] After confirmation of the absence of intercellular adhesion, the cells were detached from the dish with Cell scraper, and the number of the cells was counted with Trypan Blue and a hemocytometer. […]
The number of the cells was counted with Trypan Blue and a hemocytometer. […] For the measurement of hPSCs, TRA-1-60 positive cells were measured. […]

human iPS cell line AK5 = assay: Intracellular staining and flow cytometry of pluripotency markers SOX2 and OCT3/4; type: cell-based; conditions: PSCs maintained in LM511 with CHIR99021 added; immediately before initiation of differentiation (FIG. 7)
Method: To detect pluripotency markers SOX2 and OCT3/4, intracellular staining was performed by flow cytometry. Briefly, dead cell staining was performed using Zombie (trade s mark) Aqua Fixable Viability Kit (BioLegend, San Diego, Calif., USA). After washing, the cells were fixed by allowing to stand for 15 min at room temperature with PerFix-nckit Reagent1. Successively, the cells were subjected to a permeation treatment by fixing with ice-cooled 100% methanol for 5 min, and incubating for 10 min at room temperature with 0.5% saponin. The cells were washed and suspended in PBS (containing 3% FBS), V450 Mouse anti-Sox2 and Alexa Fluor (registered trade mark) 488 conjugated Mouse anti-OCT3/4 (BD biosciences, Bedford, Mass., USA) was added, and the mixture was incubated on ice for 30 min. Excessive antibody was washed away and analysis was performed with FACSVerse (trade mark) (BD Biosciences).

## Cc1c[nH]c(-c2cnc(NCCNc3ccc(C#N)cn3)nc2-c2ccc(Cl)cc2Cl)n1 [CHIR99021, 6-[2-[4-(2,4-Dichlorophenyl)-5-(4-methyl-1H-imidazol-2-yl)pyrimidin-2-ylamino]ethylamino]pyridine-3-carbonitrile]
[1]
  number of hematopoietic progenitor cells: the number of hematopoietic progenitor cells could be increased
Human iPS cell line AK5
  number of cells maintaining positive pluripotency for both OCT3/4 and SOX2: decreased

Source: US20220010283A1, “METHOD FOR PRODUCING PLURIPOTENT STEM CELL HAVING RELEASED DIFFERENTIATION RESISTANCE TO MESENDODERM” (Kyoto University, priority 2018, published 2022)
